Type in all cases: cell-based, Balb/c mice
The subject of one assay is splenocytes. Kind of assay: Inhibition of Concanavalin A-induced splenocyte proliferation (CCK8). Conditions: for inhibition of splenocyte proliferation (in words): Tables 4 to 6. How it is done: (§1) The isolated splenocytes were diluted in RPMI medium (containing 10% fetal bovine serum (FBS) and antibiotics (100 U/mL penicillin and 100 μg/mL streptomycin)) at a concentration of 5×10^6 cells/nit, and the cell dilution was dispended in a 24-well plate in an amount of 500 μl/well and in a 96-well plate in an amount of 100 μl/well. The plates were incubated in a 5% CO2 incubator at 37° C. for 48 hours. […] The medium of the 24-well plate was used to measure the degree of secretion of Th2 inflammatory cytokines (IL4 and IL5), and the 96-well plate was used to measure the degree of cell proliferation. First, in order to measure Th2 cytokines, the medium in the 24-well plate was collected and centrifuged at 800×g for 5 minutes, and the supernatant was collected. 100 μl of the supernatant per well was used in IL4 or IL5 enzyme-linked immunosorbent assay (ELISA, Komabiotech Inc.) to measure the degree of secretion of these cytokines. In order to measure the degree of cell proliferation, […] of CCK8 (cell counting kit 8, Donjindo) solution was added to each well of the 96-well plate, and after 4 hours, the absorbance value was measured. The degree of inhibition of spleen cell proliferation by each drug and the degree of inhibition of Th2 cytokine secretion by each drug were calculated using Equation 2 below. For drug synergistic effects, a linear equation was constructed using the concentrations of drugs administered alone as x-coordinates and using drug concentration-dependent inhibition as y-coordinates. Using this linear equation, the concentrations of drugs administered alone, which correspond to inhibition achieved when administered in combination, were calculated, and combination index (CI) was calculated using Equation 3 below. A CI value of less than 1 indicates a synergistic effect, a CI value of 1 indicates an additive effect, and a CI value of more than 1 indicates an antagonistic effect (Liang Zhao et. al., Clinical Cancer Research, 10, 7994-8004, 2004). […]

In a further assay the test system is IL5. The experiment in a line: Inhibition of IL5 secretion by Concanavalin A-treated splenocytes (ELISA). Conditions: for inhibition of IL5 secretion (in words): text on Tables 7 and 8. How it is done: as §1
(In general: An ELISA detects its analyte on a solid surface through an enzyme-linked reagent.)

The subject of another assay is IL4. The experiment in a line: Inhibition of IL4 secretion by Concanavalin A-treated splenocytes (ELISA). To be noted: for inhibition of IL4 secretion (in words): text on Tables 7 and 8. How it is done:
as §1

The mark [1] stands for this setting: Table 8, Concentration (mM) 0.25.
Where [2] appears, read: Table 8, Concentration (mM) 0.5.

Take `COc1cc2c(OC)c3c(c(-c4ccc5c(c4)OCO5)c2cc1OC)C(=O)OC3` [Justicidin A, justicidin A]: the “Inhibition of splenocyte proliferation (%, n = 3, Mean ± SD)” value (“Inhibition … (%, n = 3, Mean ± SD)” below) is on record as −2.7 ± 1.84% with splenocytes (Table 5, 0.5 μM); 9.4 ± 4.36% with splenocytes (Table 5, 1 μM); 56.4 ± 18.80% with splenocytes (Table 5, 2.5 μM); 85.0 ± 2.43% in the assay with splenocytes (Table 5, 5 μM); 43.4 ± 1.63% with splenocytes (Table 6, 1 μM); 99.0 ± 2.35% in the assay with splenocytes (Table 6, 5 μM). Besides, the “inhibition of splenocyte proliferation (in words)” value in the assay on splenocytes is “high inhibitory activities”. The “Inhibition of IL5 secretion (%, n = 2, Mean ± SD)” value in the assay on IL5 (Table 7, 1 μM) is 25.4 ± 0.01%; in the assay on IL5 (Table 7, 5 μM) it was 56.7 ± 0.00%; in the assay with IL5 (Table 8, Concentration (mM) 1), 11.7 ± 0.27%; in the assay with IL5 (Table 8, Concentration (mM) 5), 25.7 ± 0.08%. Besides, in the assay on IL5, the “inhibition of IL5 secretion (in words)” value was “inhibited the secretion of IL4 and IL5”. Besides, the “Inhibition of IL4 secretion (%, n = 2, Mean ± SD)” value in the assay with IL4 (Table 7, 1 μM) is recorded as −10.6 ± 0.08%; in the assay on IL4 (Table 7, 5 μM) it was 54.7 ± 0.02%; with IL4 (Table 8, Concentration (mM) 1), 71.6 ± 0.02%; in the assay on IL4 (Table 8, Concentration (mM) 5), 86.4 ± 0.04%. Moreover, the “inhibition of IL4 secretion (in words)” value in the assay with IL4 was “inhibited the secretion of IL4 and IL5”.

Consider `COc1cc2cc3c(c(-c4ccc5c(c4)OCO5)c2cc1OC)C(=O)OC3` [Justicidin B, justicidin B], for which the “Inhibition … (%, n = 3, Mean ± SD)” value was found to be 14.2 ± 1.43% with splenocytes (Table 5, 0.25 μM); 64.3 ± 0.50% in the assay with splenocytes (Table 5, 0.5 μM); 72.5 ± 2.66% with splenocytes (Table 6, 0.25 μM); 90.8 ± 0.94% with splenocytes (Table 6, 0.5 μM). Moreover, the “inhibition of splenocyte proliferation (in words)” value in the assay on splenocytes is on record as “high inhibitory activities”. Also, the “Inhibition of IL5 secretion (%, n = 2, Mean ± SD)” value with IL5 (Table 7, 0.5 μM) was 55.8 ± 0.01%; in the assay on IL5 (Table 7, 1 μM), 84.4 ± 0.00%; with IL5 (setting [1]), 41.9 ± 0.04%; in the assay with IL5 (setting [2]) it was 66.8 ± 0.10%. Also, the “inhibition of IL5 secretion (in words)” value in the assay with IL5 is “inhibited the secretion of IL4 and IL5”. In addition, the “Inhibition of IL4 secretion (%, n = 2, Mean ± SD)” value in the assay with IL4 (Table 7, 0.5 μM) was found to be 35.9 ± 0.01%; in the assay on IL4 (Table 7, 1 μM), 78.2 ± 0.01%; in the assay on IL4 (setting [1]), 81.6 ± 0.02%; in the assay on IL4 (setting [2]), 87.6 ± 0.02%. Also, the “inhibition of IL4 secretion (in words)” value with IL4 is “inhibited the secretion of IL4 and IL5”.

Consider `COc1cc2c(OC)c3c(c(-c4ccc5c(c4)OCO5)c2cc1OC)COC3=O` [Justicidin C, justicidin C], for which the “Inhibition … (%, n = 3, Mean ± SD)” value in the assay with splenocytes (Table 5, 0.5 μM) is reported as −3.6 ± 4.00%; in the assay with splenocytes (Table 5, 5 μM), 8.4 ± 3.20%; with splenocytes (Table 6, 1 μM) it was 6.7 ± 15.08%; in the assay on splenocytes (Table 6, 5 μM), 31.7 ± 12.81%. Also, in the assay on splenocytes, the “inhibition of splenocyte proliferation (in words)” value is listed as “exhibited the effect of inhibiting splenocyte proliferation”. Moreover, the “Inhibition of IL5 secretion (%, n = 2, Mean ± SD)” value with IL5 (Table 7, 1 μM) is 39.8 ± 0.03%; with IL5 (Table 7, 5 μM), 36.4 ± 0.02%; with IL5 (Table 8, Concentration (mM) 1), 16.9 ± 0.06%; in the assay on IL5 (Table 8, Concentration (mM) 5), 26.2 ± 0.00%. In addition, in the assay with IL5, the “inhibition of IL5 secretion (in words)” value is “inhibited the secretion of IL4 and IL5”. Besides, the “Inhibition of IL4 secretion (%, n = 2, Mean ± SD)” value is reported as −14.1 ± 0.05% in the assay with IL4 (Table 7, 1 μM); 26.1 ± 0.04% with IL4 (Table 7, 5 μM); 25.3 ± 0.15% with IL4 (Table 8, Concentration (mM) 1); 51.7 ± 0.02% in the assay on IL4 (Table 8, Concentration (mM) 5). Also, the “inhibition of IL4 secretion (in words)” value in the assay with IL4 was “inhibited the secretion of IL4 and IL5”.
